Measured values from patent US12528837B2, “Aryl substituted polymyxin derivatives” (priority 2018, dated 2026).
In brackets after ≈: the same amount, converted by molar mass. Read-outs that look alike come from different tables or passages of the source. *1 amine or outer side, *2 acyl side, *3 side chain or, on linkers, in order; H or OH if unused. Where a SMILES comes first, the peptide text is derived from it. Bridges are numbered along the chain shown (N, C = ends). [ ]: non-standard residue; d: D form. The star is where a group is joined. GABA(3R-Bn) = O=C(C[C@H](CN[*:1])Cc1ccccc1)[*:2]; X20 = NC[C@H](CC(=O)*)c1cccc(-c2ccccc2)c1; X18 = NC[C@@H](CC(=O)*)c1cc(Cl)cc(Cl)c1; X24 = NCC[C@@H](C(=O)*)c1ccc(Cl)cc1; X1 = NC[C@@H](CC(=O)*)c1cccc(Cl)c1; dNle = CCCC[C@@H](N)C(=O)O; Dab = NCC[C@H](N)C(=O)O; Abu = CC[C@H](N)C(=O)O; Dap = NC[C@H](N)C(=O)O

Key:
E. coli CA58 = format: cell-based
Experimental: (§1) The inoculum was prepared by making a direct suspension of isolated colonies (selected from an 18-24 hour Mueller-Hinton agar plate) adjusted to the 0.5 McFarland standard. […] The assays were performed in duplicate. […] Several of the compounds were subjected to multiple tests, and where this is the case, the MIC presented is the median value obtained. The MIC values are quoted in μg/mL.

K. pneumoniae CA64 = format: cell-based
Experimental: as §1

P. aeruginosa CCUG 59347 = format: cell-based
Experimental: as §1

E. coli ATCC 25922 = format: cell-based; conditions: cation-adjusted Mueller-Hinton Broth, 18-20 h, 35° C.
Experimental: (§2) The inoculum was prepared by making a direct suspension of isolated colonies (selected from an 18-24 hour Mueller-Hinton agar plate) adjusted to the 0.5 McFarland standard. […] The assays were performed in duplicate. […] The MIC values are quoted in μg/mL.

K. pneumoniae ATCC 13822 = format: cell-based; conditions: cation-adjusted Mueller-Hinton Broth, 18-20 h, 35° C.
Experimental: as §2

P. aeruginosa ATCC 27853 = format: cell-based
Experimental: as §2

HK-2 cells = assay: In vitro renal cell toxicity assay (HK-2); format: cell-based
Experimental: The in vitro renal cell toxicity assay was performed according to the following protocol. […] Cells were seeded at 7,500 cells per well in 96-well plates and allowed to adhere overnight. […] Water and DMSO levels were kept constant at 5% and 0.5% respectively. The test compounds were incubated with cells for 24 h at 37° C. 5% CO2 in a humidified atmosphere. […] Media only background values were subtracted before the data was analysed using GraphPad Prism. Individual values were normalised to the vehicle control wells for each compound. Compound concentration values were plotted as log values to enable a dose-response curve to be fitted. The bottom of the curve was constrained to zero and IC50 values were determined. IC50 values are expressed relative to that for PMB in the same experiment. Where multiple determinations have been made, median values are presented.

[1] = Kidney drug level after subcutaneous dose in mouse; format: in vivo; conditions: mouse, in vivo
Experimental: Four hours after dosing the animals were euthanised and kidneys removed, trimmed of fat and connective tissue, weighed and immediately snap-frozen. After thawing at room temperature, pairs of kidneys from each animal were placed in 2 mL conical tubes containing pre-weighed ceria-stabilised zirconium oxide beads. […] After 10 min. centrifugation at 13,000 rpm and 6° C., 200 μl of the supernatants were transferred into glass inserts and analysed by LC-MS-MS.

A. baumannii NCTC 13424 = format: cell-based; conditions: NCTC 13424
Experimental: as §2

[2] = cation-adjusted Mueller-Hinton Broth, 18-20 h, 35° C.

Row | SMILES | MIC E. coli CA58 (E. coli CA58; [2]) | MIC K. pneumoniae CA64 (K. pneumoniae CA64; [2]) | MIC P. aeruginosa CCUG 59347 (P. aeruginosa CCUG 59347; [2]) | MIC E. coli ATCC 25922 (E. coli ATCC 25922) | MIC P. aeruginosa ATCC 27853 (P. aeruginosa ATCC 27853; [2]) | other results
1 | CC[C@@H]1NC(=O)[C@@H](CC(C)C)NC(=O)[C@H](CCN)NC(=O)[C@@H](NC(=O)[C@H](CN)NC(=O)[C@@H](NC(=O)C[C@@H](CN)c2cccc(-c3ccccc3)c2)[C@@H](C)O)CCNC(=O)[C@H]([C@@H](C)O)NC(=O)[C@H](CCN)NC(=O)[C@H](CCN)NC1=O [Example 25] (X20-T[Dap][Dab][Dab][dL][Abu][Dab][Dab]T; lactam 3-C) | 16 µg/mL (≈ 14.2 µM) | 2 µg/mL (≈ 1.78 µM) | 0.5 µg/mL (≈ 0.445 µM) | 0.25 µg/mL (≈ 0.222 µM) | 0.25 µg/mL (≈ 0.222 µM) | MIC K. pneumoniae ATCC 13822 (K. pneumoniae ATCC 13822): 0.5 µg/mL (≈ 0.445 µM)
2 | CC[C@@H]1NC(=O)[C@@H](CC(C)C)NC(=O)[C@H](CCN)NC(=O)[C@@H](NC(=O)[C@H](CN)NC(=O)[C@@H](NC(=O)C[C@H](CN)c2cccc(Cl)c2)[C@@H](C)O)CCNC(=O)[C@H]([C@@H](C)O)NC(=O)[C@H](CCN)NC(=O)[C@H](CCN)NC1=O [Example 23] (X1-T[Dap][Dab][Dab][dL][Abu][Dab][Dab]T; lactam 3-C) | 32 µg/mL (≈ 29.6 µM) | 64 µg/mL (≈ 59.1 µM) | 0.5 µg/mL (≈ 0.462 µM) |  | 0.25 µg/mL (≈ 0.231 µM) | HK-2 rel to PMB (HK-2 cells; IC50 relative to PMB in the same experiment, 24 h): >41; tissue level at time at 4 h ([1]; mice, 17.2 mg/kg free base sc, 4 h, read-out: 4 hr kidney level): 263000 ng/g
3 | CCCC[C@H]1NC(=O)[C@H](CCN)NC(=O)[C@@H](NC(=O)[C@H](CN)NC(=O)[C@@H](NC(=O)C[C@H](CN)c2cc(Cl)cc(Cl)c2)[C@@H](C)O)CCNC(=O)[C@H]([C@@H](C)O)NC(=O)[C@H](CCN)NC(=O)[C@H](CCN)NC(=O)[C@H](CC)NC1=O [Example 28, (S)-4-amino-3-(3,5- dichlorophenyl)butanoyl- Thr-Dap- Cyclo[Dab-Dab- DnorLeu-Abu-Dab- Dab-Thr]] (X18-T[Dap][Dab][Dab][dNle][Abu][Dab][Dab]T; lactam 3-C) |  |  |  |  |  | HK-2 rel to PMB (HK-2 cells): 68.5; tissue level at time at 4 h ([1]; sc, 17.2 mg/kg): 408000 ng/g; MIC E. coli CA58 (E. coli CA58; CA58): 16 µg/mL (≈ 14.3 µM); MIC K. pneumoniae CA64 (K. pneumoniae CA64; CA64): 8 µg/mL (≈ 7.16 µM); MIC P. aeruginosa CCUG 59347 (P. aeruginosa CCUG 59347; CCUG 59347): 0.25 µg/mL (≈ 0.224 µM); MIC A. baumannii NCTC 13424 (A. baumannii NCTC 13424): 0.06 µg/mL (≈ 0.0537 µM); MIC P. aeruginosa ATCC 27853 (P. aeruginosa ATCC 27853; ATCC 27853): 0.25 µg/mL (≈ 0.224 µM)
4 | CC(C)C[C@@H]1NC(=O)[C@@H](CC(C)C)NC(=O)[C@H](CCN)NC(=O)[C@@H](NC(=O)[C@H](CN)NC(=O)[C@@H](NC(=O)C[C@H](CN)Cc2ccccc2)[C@@H](C)O)CCNC(=O)[C@H]([C@@H](C)O)NC(=O)[C@H](CCN)NC(=O)[C@H](CCN)NC1=O [Example 7, (R)-4-amino-3- benzylbutanoyl -Thr- Dap-Cyclo[Dab-Dab- DLeu-Leu-Dab-Dab- Thr]. Isomer 1] ({GABA(3R-Bn)}-T[Dap][Dab][Dab][dL]L[Dab][Dab]T; lactam 3-C) | 16 µg/mL (≈ 14.7 µM) | 32 µg/mL (≈ 29.3 µM) | 0.25 µg/mL (≈ 0.229 µM) | 0.25 µg/mL (≈ 0.229 µM) |  | 
5 | CC(C)C[C@@H]1NC(=O)[C@@H](Cc2ccccc2)NC(=O)[C@H](CCN)NC(=O)[C@@H](NC(=O)[C@H](CN)NC(=O)[C@@H](NC(=O)[C@H](CCN)c2ccc(Cl)cc2)[C@@H](C)O)CCNC(=O)[C@H]([C@@H](C)O)NC(=O)[C@H](CCN)NC(=O)[C@H](CCN)NC1=O [reference compound] (X24-T[Dap][Dab][Dab][dF]L[Dab][Dab]T; lactam 3-C) |  |  |  |  |  | Cytotoxicity (measured IC50 relative to that recorded for Polymyxin B) (HK-2 cells): 4.8; 4 hr kidney level/rel. cytotoxicity [1]: 111; Drug Level in Kidney (μg/g kidney, 4 h) ([1]; sc, 17.2 mg/kg): 533 μg/g kidney
